In PubChem BioAssay AID256 (DTP/NCI, 2004):
Toxic doses and inconclusive results are not listed. Rule for the calls: active = survival T/C of 150% or more; inactive = T/C below 125% in these data.

Test system: CD2F1 mice, L1210 leukemia ip, survival T/C
Assay: NCI In Vivo Anticancer Drug Screen. Data for tumor model L1210 Leukemia (intraperitoneal) in CD2F1 (CDF1) mice
Conditions: endpoint: mean survival time, higher = longer survival
Summary of the method: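 Transplantable tumor in mice; compound-treated vs vehicle-treated groups. Read-out = treated/control ratio of the measured endpoint.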

[1] = dose: 100.0 mg/kg/injection, schedule: Q01DX001 (ip), vehicle: saline with Tween-80
[2] = dose: 100.0 mg/kg/injection, schedule: Q01DX009 (ip), vehicle: saline with Tween-80
[3] = dose: 200.0 mg/kg/injection, schedule: Q01DX001 (ip), vehicle: saline with Tween-80
[4] = dose: 200.0 mg/kg/injection, schedule: Q01DX009 (ip), vehicle: saline with Tween-80
[5] = dose: 400.0 mg/kg/injection, schedule: Q01DX009 (ip), vehicle: saline with Tween-80
[6] = dose: 100.0 mg/kg/injection, schedule: Q04DX003 (ip), vehicle: saline with Tween-80
[7] = dose: 200.0 mg/kg/injection, schedule: Q04DX003 (ip), vehicle: saline with Tween-80
[8] = dose: 100.0 mg/kg/injection, schedule: Q01DX009 (ip), vehicle: other
[9] = dose: 200.0 mg/kg/injection, schedule: Q01DX009 (ip), vehicle: other

Measured: T/C

CCCCN(C)N=Nc1ccc(C(N)=O)cc1
inactive: dose: 18.75 mg/kg/injection, schedule: Q01DX009 (ip), vehicle: Klucel (hydroxypropylcellulose) (HPC) 107 % of control | dose: 37.5 mg/kg/injection, schedule: Q01DX009 (ip), vehicle: Klucel (hydroxypropylcellulose) (HPC) 113 % of control | dose: 75.0 mg/kg/injection, schedule: Q01DX009 (ip), vehicle: Klucel (hydroxypropylcellulose) (HPC) 121 % of control | dose: 150.0 mg/kg/injection, schedule: Q01DX009 (ip), vehicle: Klucel (hydroxypropylcellulose) (HPC) 106 % of control

Cc1ccc(C)c(Br)c1C
inactive: dose: 100.0 mg/kg/injection, schedule: Q01DX005 (ip), vehicle: saline with Tween-80 97 % of control | dose: 200.0 mg/kg/injection, schedule: Q01DX005 (ip), vehicle: saline with Tween-80 101 % of control | dose: 400.0 mg/kg/injection, schedule: Q01DX005 (ip), vehicle: saline with Tween-80 97 % of control

C=C[CH2][Sn]([Br])([c]1ccccc1)[c]1ccccc1
inactive: dose: 6.25 mg/kg/injection, schedule: Q01DX009 (ip), vehicle: saline with Tween-80 94 % of control | dose: 25.0 mg/kg/injection, schedule: Q04DX002 (ip), vehicle: saline with Tween-80 89 % of control

CCOC(=O)NCC(Cl)CP(=O)(c1ccccc1)c1ccccc1 (stereo unspecified)
inactive: [1] 92 % of control | [2] 97 % of control | [3] 92 % of control | [4] 97 % of control | dose: 400.0 mg/kg/injection, schedule: Q01DX001 (ip), vehicle: saline with Tween-80 92 % of control | [5] 96 % of control

Cn1c(=O)c2[n-]cnc2n(C)c1=O.[NH2-].[NH2-].[NH2-].[NH2-].[NH2-].[Ru+6]
inactive: dose: 6.25 mg/kg/injection, schedule: Q04DX003 (ip), vehicle: water 106 % of control | dose: 12.5 mg/kg/injection, schedule: Q04DX003 (ip), vehicle: water 102 % of control | dose: 25.0 mg/kg/injection, schedule: Q04DX003 (ip), vehicle: water 104 % of control | dose: 50.0 mg/kg/injection, schedule: Q04DX003 (ip), vehicle: water 104 % of control | dose: 100.0 mg/kg/injection, schedule: Q04DX003 (ip), vehicle: water 104 % of control

Nc1nc(N)c(-c2ccc(Cl)cc2)c(/C=C/C=C/c2ccc([N+](=O)[O-])cc2)n1
inactive: dose: 50.0 mg/kg/injection, schedule: Q01DX001 (ip), vehicle: saline with Tween-80 97 % of control | [1] 92 % of control | [3] 101 % of control

N#CC1=C(NC2OCC(O)C(O)C2O)CCC1 (stereo unspecified)
inactive: dose: 12.5 mg/kg/injection, schedule: Q01DX005 (ip), vehicle: other 108 % of control | dose: 25.0 mg/kg/injection, schedule: Q01DX005 (ip), vehicle: other 95 % of control | dose: 50.0 mg/kg/injection, schedule: Q01DX005 (ip), vehicle: other 98 % of control | dose: 100.0 mg/kg/injection, schedule: Q01DX005 (ip), vehicle: other 98 % of control | dose: 200.0 mg/kg/injection, schedule: Q01DX005 (ip), vehicle: other 89 % of control

CCOC(=O)S(=O)(=O)c1ccc(C)cc1
inactive: dose: 100.0 mg/kg/injection, schedule: Q01DX009 (ip), vehicle: acetone 101 % of control | dose: 200.0 mg/kg/injection, schedule: Q01DX009 (ip), vehicle: acetone 109 % of control | dose: 400.0 mg/kg/injection, schedule: Q01DX009 (ip), vehicle: acetone 114 % of control

CN(C)c1ccc(/C=N\NC(=O)CNC(=O)Nc2ccc(F)cc2)c(Cl)c1
inactive: dose: 50.0 mg/kg/injection, schedule: Q01DX009 (ip), vehicle: saline with Tween-80 100 % of control | [2] 88 % of control | [4] 92 % of control

COC(C(OC)N1CCOCC1)N1CCOCC1 (stereo unspecified)
inactive: [6] 89 % of control | [7] 89 % of control

COC(=O)CCC(=O)c1cccc(C)c1
inactive: dose: 200.0 mg/kg/injection, schedule: Q04DX003 (ip), vehicle: acetone 91 % of control | dose: 400.0 mg/kg/injection, schedule: Q04DX003 (ip), vehicle: acetone 89 % of control

C1CN(SSN2CCOCC2)CCO1
inactive: [6] 100 % of control | [7] 92 % of control

CCCCCCCCCCOc1ccc(OCCCCCCCCC)cc1
inactive: [1] 86 % of control | [3] 90 % of control

CC1(C2CC(=O)N(OCc3ccccc3)C2=O)OCCO1 (stereo unspecified)
inactive: dose: 100.0 mg/kg/injection, schedule: Q04DX003 (ip), vehicle: other 89 % of control | dose: 200.0 mg/kg/injection, schedule: Q04DX003 (ip), vehicle: other 87 % of control | dose: 400.0 mg/kg/injection, schedule: Q04DX003 (ip), vehicle: other 88 % of control

O=S(=O)(Cl)OC(CCl)C(OS(=O)(=O)Cl)C(OS(=O)(=O)Cl)C(CCl)OS(=O)(=O)Cl (stereo unspecified)
inactive: [2] 92 % of control | [4] 100 % of control | [5] 100 % of control

CCC12CC(Br)C(C1)OC2=O (stereo unspecified)
inactive: [8] 96 % of control | [9] 101 % of control | dose: 400.0 mg/kg/injection, schedule: Q01DX009 (ip), vehicle: other 100 % of control

O=C1NCCN1c1ccccc1[N+](=O)[O-]
inactive: dose: 12.5 mg/kg/injection, schedule: Q01DX009 (ip), vehicle: other 96 % of control | dose: 25.0 mg/kg/injection, schedule: Q01DX009 (ip), vehicle: other 91 % of control | dose: 50.0 mg/kg/injection, schedule: Q01DX009 (ip), vehicle: other 96 % of control | [8] 108 % of control | [9] 101 % of control
